Data taken from publication PMC3739823, “Structural Guided Scaffold Phage Display Libraries as a Source of Bio-Therapeutics” (PLoS ONE, 2013).
No end group written: not given here.

Columns and labels:
recombinant αvβ6 = test: Monoclonal scFv screening ELISA / binding to immobilised recombinant αvβ6; conditions: specific binding to recombinant αvβ6, summary statement
Description: Figure 2 Screening of phage clones isolated from the α-helix & 3_10-helix libraries. A) Monoclonal scFv screening ELISA testing 96 clones in each library. Bacterial supernatants were added to 5 µg/ml recombinant αvβ6 immobilized onto ELISA plate and then probed with mouse anti-Myc antibody followed by anti-mouse-HRP. B) Clones with unique sequences were screened for binding cellular αvβ6 by flow cytometry. […] For clarity the relevant αvβ6-specific mouse monoclonal antibody 10D5 (grey) and the negative control IgG (black) histograms are also shown in each plot. […] TEXT PRINTED IN THE PICTURE: (C) D25: 30kDa | (C) D34: 30kDa
The α-helix and 3_10 libraries were each rescued separately KM13 helper phage as described previously. For selection, we used in parallel each library separately as well as mixed alpha helix and 3_10 libraries. The initial phage selection was performed using immobilised recombinant αvβ6 protein as described previously, [29] and http://www.lifesciences.sourcebioscience.com/ media/143421/tomlinsonij.pdf. After two rounds of selection on immobilised αvβ6 we then selected the libraries on cell-expressed αvβ6 using A375Pβ6 and A375PPuro cell lines, for αvβ6-positive and αvβ6-negative selection, respectively, [22]. First line screening were done by ELISA using 5 µg/ml immobilised recombinant αvβ6 as described.

αvβ6-expressing cells = test: Internalisation assay, αvβ6-expressing cells (confocal microscopy); conditions: for cellular internalisation in αvβ6-expressing cells: scFv 4 uM or biotinylated peptide 100 nM, confocal microscopy; for cellular internalisation in αvβ6-expressing cells / nuclear localisation / time of efficient internalisation: 37°C; for nuclear localisation / time of efficient internalisation: biotinylated peptide 100 nM
[1] = Size-exclusion chromatography (FPLC) of purified scFv
cellular αvβ6 = test: Inhibition of A20FMDV2 binding to cellular αvβ6 (flow cytometry); format: cell-based; conditions: 0.1 and 1.0 µM, 10 min pre-incubation, 40 min with 10 nM biotinylated A20FMDV2; % of MFI without inhibitor
A375Ppuro cells = test: Flow cytometry binding to αvβ6-negative cells; format: cell-based; conditions: for binding to αvβ6-negative cells: flow cytometry, A375Ppuro (αvβ3, αvβ5, αvβ8, α5β1 positive), dose dependent binding analysis, 0.1 or 1 uM; for binding to αvβ6-negative cells (Figure S1): biotinylated peptide at 1 uM, A375Ppuro, rabbit anti-biotin IgG then anti-rabbit IgG-Alexafluor 488
Description: (§1) The adherent melanoma cell lines A375Pβ6 and A375Ppuro, described previously were cultured in Dulbecco's Modified Eagles' Medium (DMEM) supplemented with 10% Foetal Calf Serum (FCS). The human oral squamous cell carcinoma VB6, which was engineered to express high levels of αvβ6, was grown in Keratinocyte Growth Medium as described.
(§2) Purified scFv were tested for specificity for αvβ6 by flow cytometry using the isogenic pairs of cell lines, A375Pβ6 and A375Ppuro, or DX3β6 and DX3puro. Each pair expresses similar levels of four RGD-binding integrins (αvβ3, αvβ5, αvβ8, α5β1) but only A375Pβ6 and DX3β6 express αvβ6 [14], [22], [30]. Briefly, cells were detached with trypsin/EDTA, rinsed twice in ice-cold wash buffer (0.1% BSA/DMEM/0.1% NaN3) and approximately 2×10^5 cells re-suspended in 50 µl of wash buffer per sample. In between all incubation steps, all samples were washed twice with wash buffer unless otherwise stated. Cells were incubated on ice for 1 hr with 0.1 or 1 uM purified scFv of peptide, washed twice. For scFv, cells were then incubated for 1 hr on ice with mouse anti-Myc antibody (clone 9E10, Santa Cruz) at 1∶100. After washing, bound antibody was detected with anti-mouse IgG-Alexaflour 488 (1∶250 for 1 h; Molecular Probes), on ice. […] Cells were analysed using the FACSCalibur (Beckton Dickinson). Cell expression of αvβ6 integrin was detected with mouse monoclonal antibody (clone 10D5, 10 µg/ml; Millipore) and non-specific (control) binding with non-immune class matched IgG.
Supplementary file pone.0070452.s001.tif: Figure S1 A375Ppuro cells were incubated with biotinylated D25p or D34p at 1 uM. Bound peptide was detected with rabbit anti-biotin IgG (1∶200), followed by anti-rabbit IgG-Alexafluor 488 (1∶250; Molecular Probes). […] Black histograms represent controls where peptides were omitted. (TIF) Click here for additional data file.

αvβ6-negative cells = test: Internalisation assay, αvβ6-negative cells (confocal microscopy); conditions: scFv 4 uM or biotinylated peptide 100 nM, 37°C
[2] = tested on: A375Pβ6 cells (cellular αvβ6); test: Flow cytometry binding to αvβ6-expressing cells; format: cell-based; conditions: for binding to αvβ6-expressing cells: flow cytometry, dose dependent binding analysis, 0.1 or 1 uM, 1 hr on ice, MFI
Description: as §1, §2

[3] = tested on: αvβ6-dependent adhesion of carcinoma cells to immobilised fibronectin; test: αvβ6-dependent adhesion to fibronectin (Picogreen adhesion assay); format: cell-based; conditions: for inhibition of αvβ6-dependent adhesion to fibronectin: fibronectin 10 ug/ml, 30 min at 37°C, quadruplicate, repeated at least 2-3 times
Description: All adhesion assays were performed in quadruplicate and repeated at least 2–3 times. In a 96-well plate format, test wells were coated with Fibronectin (10 ug/ml/PBS) and negative control wells were coated with 0.1% BSA (bovine serum albumin)/PBS. After incubation at 37°C for 1 hour, plates were washed in PBS twice and blocked with 0.1% BSA/PBS for 30 mins at 37°C. Following a PBS rinse, cells were seeded into the wells, the plate resting on ice to avoid dehydration and to ensure an initial uniform temperature for the experiment. Purified scFv or peptide was added (25 ul) to the wells at the desired concentrations, before adding 1.5×10^4 cells (25 ul) per well. In some experiments, cells (1.5×10^4) were pre-treated with β1 blocking antibody AIIB2 at 10 ug/ml before seeding into test wells to block the β1-dependent fibronectin adhesion. To determine percentage adhesion, standard curves were generated by plating 0–2.5×10^4 cells in separate wells. After incubating plates at 37°C for 30′ plates were washed twice in 1 mM CaCl2/0.5 mM MgCl2/PBS and transferred into −80°C for 15 mins. Adherent cells were quantified using a Picogreen kit (Invitrogen) and analysed on a fluorescence reader (FLUOstar Optima, BMG Labtech Ltd, Bucks, UK).

D25scFv: human scFv clone with synthetic VH-CDR3 encoding RGD α-helix, EP RGDLRTLAAREKRNFNETLAR LQEKGI
binding to recombinant αvβ6 (recombinant αvβ6): specific binding to recombinant and cellular αvβ6 | cellular internalisation in αvβ6-expressing cells (αvβ6-expressing cells): cellular internalisation in αvβ6-expressing cells | cellular localisation at 0 minutes (αvβ6-expressing cells; scFv 4 uM, 0 minutes, αvβ6-expressing cells): localised at the cell surface | cellular localisation at 45 minutes (αvβ6-expressing cells; scFv 4 uM, 37°C for 45 minutes, αvβ6-expressing cells): localised within the cell cytoplasm and nucleus | size-exclusion lower peaks elution volume ([1]; HiPrep 16/60 sephacryl S-200, PBS, 0.3 ml/min, 280 nm, scFv dimers and tetramers): 45 to 60 mL | size-exclusion major peak, apparent molecular weight ([1]; HiPrep 16/60 sephacryl S-200, PBS, calibration curve): 30 kDa | oligomerisation by size-exclusion chromatography ([1]; lower peaks at 45–60 ml, PBS): scFv dimers and tetramers | inhibition of A20FMDV2 binding to cellular αvβ6 (cellular αvβ6): dose-dependent inhibition | binding to αvβ6-negative cells (A375Ppuro cells): not A375Ppuro | cellular internalisation in αvβ6-negative cells (αvβ6-negative cells): not in αvβ6-negative cells | comparison of binding to cellular αvβ6, D34scFv versus D25scFv ([2]; discussion statement): no difference in binding | binding to αvβ6-expressing cells [2]: αvβ6-specific binding to A375Pβ6 cells | binding to cellular αvβ6, flow cytometry verification ([2]; scFv at 100, 10 and 1 µg/ml): Binding to cellular αvβ6 | inhibition of αvβ6-dependent adhesion to fibronectin [3]: significant concentration-dependent inhibition | comparison of adhesion inhibition, D25scFv vs D34scFv ([3]; p>0.05): similarly inhibited

EP RGDLRTLAAREKRNFNETLAR LQEKGI [D25p, VH-CDR3 derived peptide of D25scFv, 29 amino-acids]
binding to recombinant αvβ6 (recombinant αvβ6): specific binding to recombinant and cellular αvβ6 | inhibition of A20FMDV2 binding to cellular αvβ6 (cellular αvβ6): dose-dependent inhibition | binding to αvβ6-negative cells (A375Ppuro cells): not A375Ppuro | binding to αvβ6-expressing cells [2]: αvβ6-specific binding to A375Pβ6 cells | comparison of inhibition of αvβ6-cellular function, D25p vs D34p ([3]; discussion statement): more efficient inhibitor of αvβ6-cellular function than D34p | inhibition of αvβ6-dependent adhesion to fibronectin [3]: significant concentration-dependent inhibition | comparison of adhesion inhibition, D25p vs D34p ([3]; p = 0.0156, Wilcoxon matched-pairs signed rank test): significantly stronger than D34p

QP RGDLRELAARSEAQLQEKGI [D34p, VH-CDR3 derived peptide of D34scFv, 22 amino-acids]
binding to recombinant αvβ6 (recombinant αvβ6): specific binding to recombinant and cellular αvβ6 | inhibition of A20FMDV2 binding to cellular αvβ6 (cellular αvβ6): dose-dependent inhibition | binding to αvβ6-negative cells (Figure S1) (A375Ppuro cells): no significant binding | binding to αvβ6-negative cells (A375Ppuro cells): not A375Ppuro | binding to αvβ6-expressing cells [2]: αvβ6-specific binding to A375Pβ6 cells | inhibition of αvβ6-dependent adhesion to fibronectin [3]: significant concentration-dependent inhibition

biotinylated-D25p: biotinylated D25p peptide (EPRGDLRTLAAREKRNFNETLARLQEKGI; also: biotinylated, position not given here)
nuclear localisation (αvβ6-expressing cells; αvβ6-expressing cells): no nuclear localisation | time of efficient internalisation (αvβ6-expressing cells; αvβ6-expressing cells): 30 to 45 min | cellular internalisation in αvβ6-expressing cells (αvβ6-expressing cells): cellular internalisation in αvβ6-expressing cells | binding to αvβ6-negative cells (Figure S1) (A375Ppuro cells): no significant binding | cellular internalisation in αvβ6-negative cells (αvβ6-negative cells): not in αvβ6-negative cells

biotinylated-D34p: biotinylated D34p peptide (QPRGDLRELAARSEAQLQEKGI; also: biotinylated, position not given here)
nuclear localisation (αvβ6-expressing cells; αvβ6-expressing cells): no nuclear localisation | time of efficient internalisation (αvβ6-expressing cells; αvβ6-expressing cells): 30 to 45 min | cellular internalisation in αvβ6-expressing cells (αvβ6-expressing cells): cellular internalisation in αvβ6-expressing cells | cellular internalisation in αvβ6-negative cells (αvβ6-negative cells): not in αvβ6-negative cells
